Assay results: ChEMBL document CHEMBL3784933, “Synthesis and antitumor evaluation of trimethoxyanilides based on 4(3H)-quinazolinone scaffolds” (2016)

Assays:
Assay type in all cases: functional
CCRF-CEM = assay: Cytotoxicity against human CCRF-CEM cells assessed as growth inhibition at 10 uM after 48 hrs by SRB assay; conditions: read-out: GI
K562 = assay: Cytotoxicity against human K562 cells assessed as growth inhibition at 10 uM after 48 hrs by SRB assay; conditions: K562, 48 h, read-out: GI
[1] = Cytotoxicity against human MOLT4 cells assessed as growth inhibition at 10 uM after 48 hrs by SRB assay; conditions: MOLT-4, 48 h, read-out: GI
[2] = Cytotoxicity against human RPMI8226 cells assessed as growth inhibition at 10 uM after 48 hrs by SRB assay; conditions: RPMI-8226, 48 h, read-out: GI
A549 = assay: Cytotoxicity against human A549 cells assessed as growth inhibition at 10 uM after 48 hrs by SRB assay; conditions: A549, 48 h, read-out: GI
[3] = Cytotoxicity against human HOP92 cells assessed as growth inhibition at 10 uM after 48 hrs by SRB assay; conditions: HOP-92, 48 h, read-out: GI
NCI-H322M = assay: Cytotoxicity against human NCI-H322M cells assessed as growth inhibition at 10 uM after 48 hrs by SRB assay; conditions: read-out: GI
NCI-H522 = assay: Cytotoxicity against human NCI-H522 cells assessed as growth inhibition at 10 uM after 48 hrs by SRB assay; conditions: NCI-H522, 48 h, read-out: GI
[4] = Cytotoxicity against human HCT116 cells assessed as growth inhibition at 10 uM after 48 hrs by SRB assay; conditions: HCT-116, 48 h, read-out: GI
[5] = Cytotoxicity against human SW620 cells assessed as growth inhibition at 10 uM after 48 hrs by SRB assay; conditions: SW-620, 48 h, read-out: GI
[6] = Cytotoxicity against human SF268 cells assessed as growth inhibition at 10 uM after 48 hrs by SRB assay; conditions: SF-268, 48 h, read-out: GI
[7] = Cytotoxicity against human SF295 cells assessed as growth inhibition at 10 uM after 48 hrs by SRB assay; conditions: SF-295, 48 h, read-out: GI
[8] = Cytotoxicity against human SF539 cells assessed as growth inhibition at 10 uM after 48 hrs by SRB assay; conditions: SF-539, 48 h, read-out: GI
[9] = Cytotoxicity against human SNB19 cells assessed as growth inhibition at 10 uM after 48 hrs by SRB assay; conditions: SNB-19, 48 h, read-out: GI
[10] = Cytotoxicity against human SNB75 cells assessed as growth inhibition at 10 uM after 48 hrs by SRB assay; conditions: SNB-75, 48 h, read-out: GI
U-251 = assay: Cytotoxicity against human U251 cells assessed as growth inhibition at 10 uM after 48 hrs by SRB assay; conditions: U-251, 48 h, read-out: GI
[11] = Cytotoxicity against human LOXIMVI cells assessed as growth inhibition at 10 uM after 48 hrs by SRB assay; conditions: LOX IMVI, read-out: GI
Malme-3M = assay: Cytotoxicity against human MALME-3M cells assessed as growth inhibition at 10 uM after 48 hrs by SRB assay; conditions: read-out: GI
[12] = Cytotoxicity against human UACC62 cells assessed as growth inhibition at 10 uM after 48 hrs by SRB assay; conditions: UACC-62, 48 h, read-out: GI
[13] = Cytotoxicity against human OVCAR4 cells assessed as growth inhibition at 10 uM after 48 hrs by SRB assay; conditions: OVCAR-4, 48 h, read-out: GI
[14] = Cytotoxicity against human OVCAR5 cells assessed as growth inhibition at 10 uM after 48 hrs by SRB assay; conditions: OVCAR-5, 48 h, read-out: GI
[15] = Cytotoxicity against human OVCAR8 cells assessed as growth inhibition at 10 uM after 48 hrs by SRB assay; conditions: OVCAR-8, 48 h, read-out: GI
[16] = Cytotoxicity against human NCI-ADR-RES cells assessed as growth inhibition at 10 uM after 48 hrs by SRB assay; conditions: read-out: GI
786-0 = assay: Cytotoxicity against human 786-0 cells assessed as growth inhibition at 10 uM after 48 hrs by SRB assay; conditions: 786-0, 48 h, read-out: GI
A498 = assay: Cytotoxicity against human A498 cells assessed as growth inhibition at 10 uM after 48 hrs by SRB assay; conditions: A498, 48 h, read-out: GI
ACHN = assay: Cytotoxicity against human ACHN cells assessed as growth inhibition at 10 uM after 48 hrs by SRB assay; conditions: read-out: GI
[17] = Cytotoxicity against human Caki1 cells assessed as growth inhibition at 10 uM after 48 hrs by SRB assay; conditions: CAKI-1, 48 h, read-out: GI
[18] = Cytotoxicity against human RXF393 cells assessed as growth inhibition at 10 uM after 48 hrs by SRB assay; conditions: RXF 393, 48 h, read-out: GI
SN12C = assay: Cytotoxicity against human SN12C cells assessed as growth inhibition at 10 uM after 48 hrs by SRB assay; conditions: read-out: GI
[19] = Cytotoxicity against human UO31 cells assessed as growth inhibition at 10 uM after 48 hrs by SRB assay; conditions: UO-31, 48 h, read-out: GI
[20] = Cytotoxicity against human PC3 cells assessed as growth inhibition at 10 uM after 48 hrs by SRB assay; conditions: PC-3, 48 h, read-out: GI
MDA-MB-231 = assay: Cytotoxicity against human MDA-MB-231 cells assessed as growth inhibition at 10 uM after 48 hrs by SRB assay; conditions: MDA-MB-231, 48 h, read-out: GI
[21] = Cytotoxicity against human Hs 578T cells assessed as growth inhibition at 10 uM after 48 hrs by SRB assay; conditions: read-out: GI
[22] = Cytotoxicity against human BT549 cells assessed as growth inhibition at 10 uM after 48 hrs by SRB assay; conditions: BT-549, 48 h, read-out: GI
T47D = assay: Cytotoxicity against human T47D cells assessed as growth inhibition at 10 uM after 48 hrs by SRB assay; conditions: read-out: GI
SR = assay: Cytotoxicity against human SR cells assessed as growth inhibition at 10 uM after 48 hrs by SRB assay; conditions: read-out: GI
[23] = Cytotoxicity against human HOP62 cells assessed as growth inhibition at 10 uM after 48 hrs by SRB assay; conditions: HOP-62, 48 h, read-out: GI
NCI-H226 = assay: Cytotoxicity against human NCI-H226 cells assessed as growth inhibition at 10 uM after 48 hrs by SRB assay; conditions: NCI-H226, 48 h, read-out: GI
NCI-H23 = assay: Cytotoxicity against human NCI-H23 cells assessed as growth inhibition at 10 uM after 48 hrs by SRB assay; conditions: NCI-H23, 48 h, read-out: GI
NCI-H460 = assay: Cytotoxicity against human NCI-H460 cells assessed as growth inhibition at 10 uM after 48 hrs by SRB assay; conditions: NCI-H460, 48 h, read-out: GI
SK-MEL-2 = assay: Cytotoxicity against human SK-MEL-2 cells assessed as growth inhibition at 10 uM after 48 hrs by SRB assay; conditions: SK-MEL-2, 48 h, read-out: GI
SK-MEL-5 = assay: Cytotoxicity against human SK-MEL-5 cells assessed as growth inhibition at 10 uM after 48 hrs by SRB assay; conditions: SK-MEL-5, 48 h, read-out: GI
[24] = Cytotoxicity against human UACC257 cells assessed as growth inhibition at 10 uM after 48 hrs by SRB assay; conditions: UACC-257, 48 h, read-out: GI
[25] = Cytotoxicity against human IGROV1 cells assessed as growth inhibition at 10 uM after 48 hrs by SRB assay; conditions: IGROV-1, 48 h, read-out: GI
[26] = Cytotoxicity against human OVCAR3 cells assessed as growth inhibition at 10 uM after 48 hrs by SRB assay; conditions: OVCAR-3, 48 h, read-out: GI
[27] = Cytotoxicity against human SKOV3 cells assessed as growth inhibition at 10 uM after 48 hrs by SRB assay; conditions: SK-OV-3, 48 h, read-out: GI
[28] = Cytotoxicity against human DU145 cells assessed as growth inhibition at 10 uM after 48 hrs by SRB assay; conditions: DU-145, 48 h, read-out: GI
MCF7 = assay: Cytotoxicity against human MCF7 cells assessed as growth inhibition at 10 uM after 48 hrs by SRB assay; conditions: MCF7, 48 h, read-out: GI
MDA-MB-468 = assay: Cytotoxicity against human MDA-MB-468 cells assessed as growth inhibition at 10 uM after 48 hrs by SRB assay; conditions: MDA-MB-468, 48 h, read-out: GI
[29] = Cytotoxicity against human NCI-H322 cells assessed as growth inhibition at 10 uM after 48 hrs by SRB assay; conditions: NCI-H322, 48 h, read-out: GI

## COc1cc(NC(=O)CCSc2nc3ccc(C)cc3c(=O)n2-c2ccccc2)cc(OC)c1OC
CCRF-CEM
  inhibition of growth at 10 µM: 35%
K562
  inhibition of growth at 10 µM: 10%
[1]
  inhibition of growth at 10 µM: 43%
[2]
  inhibition of growth at 10 µM: 27%
A549
  inhibition of growth at 10 µM: 15%
[3]
  inhibition of growth at 10 µM: 40%
NCI-H322M
  inhibition of growth at 10 µM: 19%
NCI-H522
  inhibition of growth at 10 µM: 80%
[4]
  inhibition of growth at 10 µM: 16%
[5]
  inhibition of growth at 10 µM: 13%
[6]
  inhibition of growth at 10 µM: 34%
[7]
  inhibition of growth at 10 µM: 13%
[8]
  inhibition of growth at 10 µM: 17%
[9]
  inhibition of growth at 10 µM: 17%
[10]
  inhibition of growth at 10 µM: 50%
U-251
  inhibition of growth at 10 µM: 20%
[11]
  inhibition of growth at 10 µM: 62%
Malme-3M
  inhibition of growth at 10 µM: 13%
[12]
  inhibition of growth at 10 µM: 24%
[13]
  inhibition of growth at 10 µM: 23%
[14]
  inhibition of growth at 10 µM: 12%
[15]
  inhibition of growth at 10 µM: 16%
[16]
  inhibition of growth at 10 µM: 26%
786-0
  inhibition of growth at 10 µM: 21%
A498
  inhibition of growth at 10 µM: 45%
ACHN
  inhibition of growth at 10 µM: 24%
[17]
  inhibition of growth at 10 µM: 29%
[18]
  inhibition of growth at 10 µM: 29%
SN12C
  inhibition of growth at 10 µM: 17%
[19]
  inhibition of growth at 10 µM: 47%
[20]
  inhibition of growth at 10 µM: 36%
MDA-MB-231
  inhibition of growth at 10 µM: 53%
[21]
  inhibition of growth at 10 µM: 14%
[22]
  inhibition of growth at 10 µM: 12%
T47D
  inhibition of growth at 10 µM: 19%

## COc1cc(NC(=O)CCSc2nc3ccccc3c(=O)n2-c2ccc(F)cc2)cc(OC)c1OC
CCRF-CEM
  inhibition of growth at 10 µM: 67%
[2]
  inhibition of growth at 10 µM: 17%
SR
  inhibition of growth at 10 µM: 11%
A549
  inhibition of growth at 10 µM: 28%
[23]
  inhibition of growth at 10 µM: 40%
[3]
  inhibition of growth at 10 µM: 103%
NCI-H226
  inhibition of growth at 10 µM: 38%
NCI-H23
  inhibition of growth at 10 µM: 21%
NCI-H460
  inhibition of growth at 10 µM: 18%
NCI-H522
  inhibition of growth at 10 µM: 68%
[4]
  inhibition of growth at 10 µM: 30%
[6]
  inhibition of growth at 10 µM: 34%
[7]
  inhibition of growth at 10 µM: 40%
[8]
  inhibition of growth at 10 µM: 34%
[9]
  inhibition of growth at 10 µM: 32%
[10]
  inhibition of growth at 10 µM: 117%
U-251
  inhibition of growth at 10 µM: 42%
[11]
  inhibition of growth at 10 µM: 12%
Malme-3M
  inhibition of growth at 10 µM: 40%
SK-MEL-2
  inhibition of growth at 10 µM: 47%
SK-MEL-5
  inhibition of growth at 10 µM: 11%
[24]
  inhibition of growth at 10 µM: 15%
[12]
  inhibition of growth at 10 µM: 32%
[25]
  inhibition of growth at 10 µM: 25%
[26]
  inhibition of growth at 10 µM: 18%
[13]
  inhibition of growth at 10 µM: 104%
[15]
  inhibition of growth at 10 µM: 61%
[16]
  inhibition of growth at 10 µM: 28%
[27]
  inhibition of growth at 10 µM: 70%
A498
  inhibition of growth at 10 µM: 22%
ACHN
  inhibition of growth at 10 µM: 39%
[17]
  inhibition of growth at 10 µM: 22%
[18]
  inhibition of growth at 10 µM: 40%
SN12C
  inhibition of growth at 10 µM: 20%
[19]
  inhibition of growth at 10 µM: 23%
[20]
  inhibition of growth at 10 µM: 25%
[28]
  inhibition of growth at 10 µM: 21%
MCF7
  inhibition of growth at 10 µM: 22%
MDA-MB-231
  inhibition of growth at 10 µM: 47%
[22]
  inhibition of growth at 10 µM: 28%
T47D
  inhibition of growth at 10 µM: 39%
MDA-MB-468
  inhibition of growth at 10 µM: 21%
[29]
  inhibition of growth at 10 µM: 14%
